The values below come from patent US20240400561A1, “NOVEL SUBSTITUTED SULFONYLUREA COMPOUNDS AS INHIBITORS OF INTERLEUKIN-1 ACTIVITY” (Viva Star Biosciences (Suzhou) Co., Ltd., priority 2021, published 2024).

The target of the assay is T1, NLRP3 (Homo sapiens, UniProt Q96P20).
T1 construct: Seed THP-1 cells (5.56*10^5 cells/mL) containing 1.0 ug/mL LPS; endogenous in cells; host or cells: THP-1 cells
The assay can be described thus: THP-1 cell assay (LPS priming, nigericin), IL1β release by HTRF; called pyroptosis assay, THP IC50. The following applies: NLRP3 inhibitory activity; THP-1 cells, 1.0 ug/mL LPS, compound 3 hrs, nigericin 5 uM 1 hr, IL1β in supernatant. The format is cell-based. How it is done: The following method was used for compound screening. • 1. Seed THP-1 cells (5.56*10^5 cells/mL) containing 1.0 ug/mL LPS (SIGMA, L6529) in 45 uL RPMI 1640 medium (without FBS) into 384-well plate (Thermo Scientific, 164688). • 2. Add 5 uL compound (10 doses starting from 5 uM, 1:3 dilution) or vehicle (0.05% DMSO in medium) to the appropriate wells. • 3. Centrifuge the plates at 1000 rpm for 2 mins and incubate for 3 hrs at 37° C., 5% CO2. • 4. Add 5 uL nigericin (MEC, HY-100381) (final conc. 5 uM) to sample wells and positive control wells; add 5 uL RPMI 1640 medium to negative control wells. • 5. Centrifuge plates at 1000 rpm for 2 mins and incubate for 1 hr at 37° C., 5% CO2. • 6. At the end of the incubation period, centrifuge plates at 1000 rpm for 6 mins and transfer 8 uL supernatant into 384-well assay plates (PerkinElmer, 6008280). • 7. Add 8 ul RPMI 1640 medium into each well and spin down for 10 secs. • 8. Prepare the standard solutions and pre-mixed IL1β antibody solution of Human […] kits (PerkinElmer, 62HIL1BPEH) according to the instruction. • 9. Add 16 uL standard solutions into clear wells of 384-well assay plates. • 10. Add 4 uL pre-mixed IL1β antibody solution to all wells including sample wells, positive control wells, negative control wells and standard solutions wells. • 11. Seal the plates, spin down for 10 secs, incubation for overnight at RT and read on an HTRF® compatible reader (BMG LABTECH, PHERAstar FS). • 12. The concentrations of IL1β for treated wells are calculated by the standard curve. • 13. The IC50 data is fitted to a non-liner regression equation (log inhibitor vs. response—Variable slope four parameters)).

T1 sequence (Q96P20 whole entry): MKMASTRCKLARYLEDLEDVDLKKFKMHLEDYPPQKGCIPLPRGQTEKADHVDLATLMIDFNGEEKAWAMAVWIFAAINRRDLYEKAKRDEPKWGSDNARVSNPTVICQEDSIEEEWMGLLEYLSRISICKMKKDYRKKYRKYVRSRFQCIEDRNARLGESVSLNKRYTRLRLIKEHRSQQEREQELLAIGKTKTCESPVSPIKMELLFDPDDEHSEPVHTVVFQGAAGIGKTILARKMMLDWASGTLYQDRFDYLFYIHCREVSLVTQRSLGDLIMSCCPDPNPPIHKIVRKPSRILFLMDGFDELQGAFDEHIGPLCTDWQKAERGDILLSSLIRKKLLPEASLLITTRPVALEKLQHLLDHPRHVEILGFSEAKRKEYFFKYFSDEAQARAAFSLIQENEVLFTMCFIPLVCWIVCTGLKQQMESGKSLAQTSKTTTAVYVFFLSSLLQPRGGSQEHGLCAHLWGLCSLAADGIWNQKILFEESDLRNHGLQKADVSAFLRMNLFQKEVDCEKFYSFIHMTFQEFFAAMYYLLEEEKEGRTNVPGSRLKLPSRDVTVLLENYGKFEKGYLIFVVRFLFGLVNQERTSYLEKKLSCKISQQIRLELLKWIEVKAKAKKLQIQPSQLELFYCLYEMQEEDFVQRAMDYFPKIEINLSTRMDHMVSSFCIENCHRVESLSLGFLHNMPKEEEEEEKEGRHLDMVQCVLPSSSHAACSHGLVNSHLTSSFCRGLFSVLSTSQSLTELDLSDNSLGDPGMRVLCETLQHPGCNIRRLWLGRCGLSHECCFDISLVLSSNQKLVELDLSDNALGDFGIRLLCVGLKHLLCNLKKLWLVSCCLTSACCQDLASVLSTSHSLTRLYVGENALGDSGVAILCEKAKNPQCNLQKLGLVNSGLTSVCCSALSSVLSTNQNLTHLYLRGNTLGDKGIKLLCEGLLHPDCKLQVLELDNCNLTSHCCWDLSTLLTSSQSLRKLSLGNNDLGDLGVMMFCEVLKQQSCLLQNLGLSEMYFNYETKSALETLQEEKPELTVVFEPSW

In turn, `CC(C)(O)c1csc(S(=O)(=O)NC(=O)Nc2c(-c3ccc4ncnn4c3)ccc3c2CCC3)c1` [Example 52, N-((5-([1,2,4]triazolo[1,5-a]pyridin-6-yl)-2,3-dihydro-1H-inden-4-yl)carbamoyl)-4-(2-hydroxypropan-2-yl)thiophene-2-sulfonamide] came in with a concentration for half-maximal inhibition (IC50) of at most 30 nM.

With `CC(C)(O)c1csc(S(=O)(=O)NC(=O)Nc2c(-c3ccn4ncnc4c3)ccc3c2CCC3)c1` [Example 53, N-((5-([1,2,4]triazolo[1,5-a]pyridin-7-yl)-2,3-dihydro-1H-inden-4-yl)carbamoyl)-4-(2-hydroxypropan-2-yl)thiophene-2-sulfonamide], the IC50 was at most 30 nM.

In the case of `CC(C)(O)c1csc(S(=O)(=O)NC(=O)Nc2c(-c3ccn4cncc4c3)ccc3c2CCC3)c1` [Example 54, 4-(2-hydroxypropan-2-yl)-N-((5-(imidazo[1,5-a]pyridin-7-yl)-2,3-dihydro-1H-inden-4-yl)carbamoyl)thiophene-2-sulfonamide], the IC50 is at most 30 nM.

In turn, `CN1CCC(n2ccc3c(-c4ccc5c(c4NC(=O)NS(=O)(=O)c4cc(C(C)(C)O)cs4)CCC5)ccnc32)CC1` [Example 55, 4-(2-hydroxypropan-2-yl)-N-((5-(1-(1-methylpiperidin-4-yl)-1H-pyrrolo[2,3-b]pyridin-4-yl)-2,3-dihydro-1H-inden-4-yl)carbamoyl)thiophene-2-sulfonamide] returned a concentration for half-maximal inhibition (IC50) of 300 to 1000 nM.

For the compound `CC(C)(O)c1csc(S(=O)(=O)NC(=O)Nc2c(-c3ccnc4c3ccn4C3CCOCC3)ccc3c2CCC3)c1` [Example 56, 4-(2-hydroxypropan-2-yl)-N-((5-(1-(tetrahydro-2H-pyran-4-yl)-1H-pyrrolo[2,3-b]pyridin-4-yl)-2,3-dihydro-1H-inden-4-yl)carbamoyl)thiophene-2-sulfonamide], the IC50 is 30 to 300 nM.

`CN1CCC(n2ccc3c(-c4ccc5c(c4NC(=O)NS(=O)(=O)c4cc(C(C)(C)O)cs4)CCC5)ccnc32)C1` (stereo not drawn) [Example 57, 4-(2-hydroxypropan-2-yl)-N-((5-(1-(1-methylpyrrolidin-3-yl)-1H-pyrrolo[2,3-b]pyridin-4-yl)-2,3-dihydro-1H-inden-4-yl)carbamoyl)thiophene-2-sulfonamide] showed an IC50 of 300 to 1000 nM.

`CC(C)(O)c1csc(S(=O)(=O)NC(=O)Nc2c(-c3ccnc4c3ccn4C3CCOC3)ccc3c2CCC3)c1` (stereo not drawn) [Example 58, 4-(2-hydroxypropan-2-yl)-N-((5-(1-(tetrahydrofuran-3-yl)-1H-pyrrolo[2,3-b]pyridin-4-yl)-2,3-dihydro-1H-inden-4-yl)carbamoyl)thiophene-2-sulfonamide]: the concentration for half-maximal inhibition (IC50) was in the range of 30 to 300 nM.

With `CC(C)(O)c1csc(S(=O)(=O)NC(=O)Nc2c(-c3ccnc4c3ccn4C3COC3)ccc3c2CCC3)c1` [Example 59, 4-(2-hydroxypropan-2-yl)-N-((5-(1-(oxetan-3-yl)-1H-pyrrolo[2,3-b]pyridin-4-yl)-2,3-dihydro-1H-inden-4-yl)carbamoyl)thiophene-2-sulfonamide], the IC50 fell in the range of 30 to 300 nM.

`CC(C)(O)c1csc(S(=O)(=O)NC(=O)Nc2c(-c3ccn4nccc4c3)ccc3c2CCC3)c1` [Example 60, 4-(2-hydroxypropan-2-yl)-N-((5-(pyrazolo[1,5-a]pyridin-5-yl)-2,3-dihydro-1H-inden-4-yl)carbamoyl)thiophene-2-sulfonamide] came in with a 50% inhibitory concentration (IC50) of at most 30 nM.

`CC(C)(O)c1csc(S(=O)(=O)NC(=O)Nc2c(-c3ccc4nncn4c3)ccc3c2CCC3)c1` [Example 61] registered a half-maximal inhibitory concentration (IC50) of 300 to 1000 nM.

For the compound `CC(C)(O)c1csc(S(=O)(=O)NC(=O)Nc2c(-c3ccn4nncc4c3)ccc3c2CCC3)c1` [Example 62, N-((5-([1,2,3]triazolo[1,5-a]pyridin-5-yl)-2,3-dihydro-1H-inden-4-yl)carbamoyl)-4-(2-hydroxypropan-2-yl)thiophene-2-sulfonamide], the IC50 fell in the range of 30 to 300 nM.

Take `CC(C)(O)c1csc(S(=O)(=O)NC(=O)Nc2c(-c3ccn4cnnc4c3)ccc3c2CCC3)c1` [Example 63, N-((5-([1,2,4]triazolo[4,3-a]pyridin-7-yl)-2,3-dihydro-1H-inden-4-yl)carbamoyl)-4-(2-hydroxypropan-2-yl)thiophene-2-sulfonamide]: the IC50 was at most 30 nM.

As for `CC(C)(O)c1csc(S(=O)(=O)NC(=O)Nc2c(-c3cnc4ccnn4c3)ccc3c2CCC3)c1` [Example 64, 4-(2-hydroxypropan-2-yl)-N-((5-(pyrazolo[1,5-a]pyrimidin-6-yl)-2,3-dihydro-1H-inden-4-yl)carbamoyl)thiophene-2-sulfonamide], the half-maximal inhibitory concentration (IC50) fell in the range of 1000 to 2000 nM.

On to `CC(C)(O)c1csc(S(=O)(=O)NC(=O)Nc2c(-c3ccc4nccn4c3)ccc3c2OCO3)c1` [Example 65, 4-(2-hydroxypropan-2-yl)-N-((5-(imidazo[1,2-a]pyridin-6-yl)benzo[d][1,3]dioxol-4-yl)carbamoyl)thiophene-2-sulfonamide], for which the half-maximal inhibitory concentration (IC50) was 30 to 300 nM.

The compound `CC(C)(O)c1csc(S(=O)(=O)NC(=O)Nc2c(-c3ccn4ccnc4c3)ccc3c2OCO3)c1` [Example 66, 4-(2-hydroxypropan-2-yl)-N-((5-(imidazo[1,2-a]pyridin-7-yl)benzo[d][1,3]dioxol-4-yl)carbamoyl)thiophene-2-sulfonamide] registered a 50% inhibitory concentration (IC50) of at most 30 nM.

Consider `CC(C)(O)c1csc(S(=O)(=O)NC(=O)Nc2c(-c3ccc4ccnn4c3)ccc3c2CCC3)c1` [Example 68, 4-(2-hydroxypropan-2-yl)-N-((5-(pyrazolo[1,5-a]pyridin-6-yl)-2,3-dihydro-1H-inden-4-yl)carbamoyl)thiophene-2-sulfonamide], for which the IC50 is at most 30 nM.

For the compound `Cc1cc2c(c(NC(=O)NS(=O)(=O)c3cc(C(C)(C)O)cs3)c1-c1ccn3cncc3c1)CCC2` [Example 69, 4-(2-hydroxypropan-2-yl)-N-((5-(imidazo[1,5-a]pyridin-7-yl)-6-methyl-2,3-dihydro-1H-inden-4-yl)carbamoyl)thiophene-2-sulfonamide], the 50% inhibitory concentration (IC50) was at most 30 nM.

On to `Cc1cc2c(c(NC(=O)NS(=O)(=O)c3cc(C(C)(C)O)cs3)c1-c1ccn3nccc3c1)CCC2` [Example 70, 4-(2-hydroxypropan-2-yl)-N-((6-methyl-5-(pyrazolo[1,5-a]pyridin-5-yl)-2,3-dihydro-1H-inden-4-yl)carbamoyl)thiophene-2-sulfonamide], for which the IC50 was at most 30 nM.

`CC(C)(O)c1csc(S(=O)(=O)NC(=O)Nc2c3c(cc(Cl)c2-c2ccn4cncc4c2)CCC3)c1` [Example 71, N-((6-chloro-5-(imidazo[1,5-a]pyridin-7-yl)-2,3-dihydro-1H-inden-4-yl)carbamoyl)-4-(2-hydroxypropan-2-yl)thiophene-2-sulfonamide]: the IC50 was at most 30 nM.

The compound `Cc1c(-c2ccc3c(c2NC(=O)NS(=O)(=O)c2cc(C(C)(C)O)cs2)CCC3)ccn2ccnc12` [Example 72, 4-(2-hydroxypropan-2-yl)-N-((5-(8-methylimidazo[1,2-a]pyridin-7-yl)-2,3-dihydro-1H-inden-4-yl)carbamoyl)thiophene-2-sulfonamide] yielded a 50% inhibitory concentration (IC50) of 30 to 300 nM.

`Cc1c(-c2ccc3c(c2NC(=O)NS(=O)(=O)c2cc(C(C)(C)O)cs2)CCC3)ccn2cncc12` [Example 73, 4-(2-hydroxypropan-2-yl)-N-((5-(8-methylimidazo[1,5-a]pyridin-7-yl)-2,3-dihydro-1H-inden-4-yl)carbamoyl)thiophene-2-sulfonamide] showed an IC50 of 30 to 300 nM.

Usually IC50 stands for the concentration at which inhibition is half-maximal. A low value points to greater potency.
